Source: patent US12466824B2, “Stable polymorphic form of 6-fluoro-9-methyl-9H-β-carboline and uses thereof” (AudioCure Pharma GmbH, priority 2019, dated 2025)
“Also recorded” adds a separate entry of the source.

Key:
[1] = Polymorph stability in poloxamer-based formulation (XRPD); format: physicochemical; settings: for conversion of polymorphic form A into polymorphic form B: XRPD
Method: In a series of experiments, the polymorph stability has been analyzed. Micronized (≤20 μm) polymorphs A and B were added to phosphate buffer containing a non-ionic tenside as vehicle formulation. […]
2 mL of poloxamer based formulation with 12 mg/ml 6-FMC were cooled to 4° C., vortexed and transferred into a 2 mL Eppendorf vial. The cooled vial was centrifuged for 2 min with a table-centrifuge, the supernatant polymer solution was removed with a pipette and discarded. The remaining 6-FMC was resuspended and vortexed with 1.5 mL of ice cold milli-Q water and centrifuged down as described before. The supernatant water was again removed with a pipette and the washing procedure is repeated 3 times (in total 4 washings). Note: Keep the solution cool to facilitate the centrifugation process. After the last washing, the remaining white 6-FMC is cooled with liquid nitrogen and freeze dried overnight at 100 Pa at room temperature.
After 30 hours in formulation 60% of polymorphic form A is converted into polymorphic form B (see FIG. 10). Keeping the formulation for 48 hours or longer results in 100% conversion of polymorphic form A into polymorphic form B as shown in FIG. 11.

[2] = test system: noise induced hearing loss model (NIHL) in guinea pigs; test: Noise induced hearing loss (NIHL) guinea pig model, intratympanic application, PTS by BERA; format: in vivo; settings: single intratympanic 0.12 mg; for level of improvement of the PTS: across investigated frequencies (FIG. 13 / FIG. 14)
Method: The effect of an intratympanic administration of polymorph A of 6-FMC (0.12 mg) prepared freshly (less than 24 h before use) on the Permanent Threshold Shift has been investigated in guinea pigs (FIG. 13). The Permanent Threshold Shift (PTS) is defined as the difference between the post-traumatic hearing threshold measured on day 14 and the baseline hearing threshold measured on day −3.
Furthermore, the effect of an intratympanic administration of polymorph B of 6-FMC (0.12 mg) prepared at least 48 h before use, on the PTS in guinea pigs is presented in FIG. 14.
General procedures: All in vivo proof of principle studies were performed in the well-established guinea pig model of NIHL. […] Hearing function was assessed by brain evoked response audiometry (BERA).
Methods: Adult guinea pigs received an intratympanic (i.t.) injection of either 6-FMC formulated in a thermosensitive hydrogel or hydrogel alone. All procedures were performed under anesthesia. BERA was used to measure auditory brainstem responses (ABRs) on day −3 and day 14. The auditory stimuli were sinus tones (10 ms duration at 4, 8, 16 kHz) at 5 dB steps from 0-90 dB. These measurements were used to calculate the PTS. The acoustic trauma was performed on day 0 and consisted of a single continuous band (quarter-octave centered at 8 kHz) at 118 dB SPL for 30 min. Animals were treated 1 h after the end of the acoustic exposure. The round window was visualized under a surgical microscope via a small hole drilled in the bone of the bulla of the left ear. 10 μL of gel containing either 6-FMC or vehicle was injected using a Hamilton syringe and a motorized pump onto the round window membrane (RWM) before the hole was closed with dental cement.
Formulation preparation: a non-ionic tenside based solution is prepared in advance, by dissolving an appropriate amount of the non-ionic tenside in water or in PBS buffer and allowing for an overnight mixing under refrigerated conditions. Once the non-ionic tenside is completely dissolved, osmolality and pH are adjusted if desired. Next the solution is filtered through a 500 μm sieve to remove undissolved gel particles. This concludes compounding of the vehicle. API (Active Pharmaceutical Ingredient) containing formulation is prepared by addition of micronized 6-FMC (≤50 μm) at a concentration of 12 mg/mL. For experiments presented in FIG. 13, 6-FMC formulation was applied directly after being prepared. For experiments in FIG. 14, 6-FMC formulation was prepared at least 48 h prior to animal experiments.

[3] = Polymorph conversion under various thermal conditions (polymorph B to polymorph A), XRPD; format: physicochemical
Method: 3-1: Polymorph B of 6-FMC was dissolved in n-heptane, the suspension was heated (100° C.) for 1:45 h under stirring. Then the suspension was cooled and stirred at room temperature for 15 hrs. The precipitate was filtered, washed with n-heptane and dried by air.
3-2: Polymorph B of 6-FMC was diluted in toluene and heated up to 95° C. and cooled down to room temperature. The precipitate was filtered, washed with toluene and dried in an air stream.
3-3: A suspension of polymorph B of 6-FMC was diluted in n-heptane and heated up to 110° C. It was kept for 5 hrs 18 min in a flask under reflux conditions, followed by gentle cooling down to room temperature, stirred for 16 hrs. The precipitate was filtered, washed with heptane and dried by air.
3-4: A suspension of polymorph B of 6-FMC was diluted in n-heptane and heated up to 108° C. until the substance was completely diluted. Seed crystals of polymorph A were added to the solution which was gentle cooled down to room temperature. The precipitate was filtered, washed with n-heptane and dried by air.

[4] = Polymorph conversion using supercritical CO2; format: physicochemical; settings: 60° C., 350 bar (35 MPa), 2.5 h
Method: Extraction/polymorph conversion with supercritical CO2 was performed with 500 mg of crude, off-white polymorph B in an ExtrateX Rapid Expansion of a Supercritical Solution (REES) system. The extraction vessel was heated to 60° C. with a pressure of 350 bar. The nozzle was a stainless-steel capillary 5 cm length, inner diameter 0.25 mm at 70° C. The expansion vessel was heated to 40° C. at 1-5 Mpa. Equilibration time: 2.5 h; spraying-time: 15 min.
The cylinder of the apparatus in which the supercritical CO2 had been introduced was loaded with polymorph B (FIG. 9A) and heated to 60° C. and a pressure of 35 MPa. The time amounted to 2.5 hrs during which the API dissolved completely in the supercritical CO2.

[5] = Melting/cooling and vacuum sublimation of polymorph powders; format: physicochemical
Method: The polymorph B sample melted at ˜123° C. […] (FIG. 6B).

[6] = Polymorph stability under manufacturing processes; format: physicochemical; settings: drying, milling, micronization, wet granulation, spray-drying, compaction
Text: Various dissolution/crystallization conditions have been applied to try to convert polymorph B into polymorph A. As mentioned above, only with sophisticated procedures polymorph B could be fully converted into polymorph A (Example 4). Polymorphic forms of a drug substance can undergo phase conversion when exposed to a range of manufacturing processes, such as drying, milling, micronization, wet granulation, spray-drying, and compaction. Exposure to environmental conditions such as humidity and temperature can also induce polymorph conversion. Therefore, polymorph A is unstable and thus not suited for pharmaceutical processes, while polymorph B was stable under all these conditions including drying, milling, micronization, wet granulation, spray-drying, and compaction.

[7] = day 14 vs day -3, listed as polymorphic form B
[8] = day 14 vs day -3, listed as polymorphic form A

SMILES	polymorph conversion in formulation ([1]; initially introduced polymorph B, after 30 h in formulation)	polymorph conversion in formulation ([1]; sample initially made from polymorph B, regular intervals over several months)	PTS at some frequencies ([2]; 4 and 8 kHz (FIG. 14))	level of improvement of the PTS ([2]; listed as polymorphic form B)	average PTS (threshold shift) in treated animals [2, 7] [dB]	average PTS reduction versus vehicle-treated controls [2, 7] [dB]	conversion of polymorph B into form A (XRPD) ([3]; 3-1: n-heptane, 100° C. for 1:45 h, then room temperature 15 hrs)	conversion of polymorph B into form A (XRPD) ([3]; 3-2: toluene, heated to 95° C., cooled to room temperature, not reproducible)	conversion of polymorph B into form A (XRPD) ([3]; 3-3: n-heptane, 110° C., reflux 5 hrs 18 min, cooled, stirred 16 hrs)	conversion of polymorph B into form A (XRPD) ([3]; 3-4: n-heptane, 108° C., seed crystals of polymorph A added, cooled to room temperature)	polymorph conversion in supercritical CO2 [4]	polymorph conversion in the melt (diffractometry) ([5]; depending on duration of the melting status)	polymorph conversion on vacuum sublimation ([5]; vacuum sublimation at 1-2 kPa)	stability under manufacturing processes [6]	conversion of polymorphic form A into polymorphic form B ([1]; 30 hours in poloxamer based formulation (phosphate buffer, non-ionic tenside), micronized) [%]	conversion of polymorphic form A into polymorphic form B ([1]; 48 hours in poloxamer based formulation, listed as polymorphic A) [%]	level of improvement of the PTS [2]	recovery of the PTS compared to vehicle treated animals ([2]; at 16 kHz)	average PTS (threshold shift) in treated animals [2, 8] [dB]	average PTS reduction versus vehicle-treated controls [2, 8] [dB]
Cn1c2ccc(F)cc2c2ccncc21 [polymorph B, 6-fluoro-9-methyl-9H-β-carboline]	no conversion	no polymorph conversion	0	23-39 dBs	0.6	34.1	did not reveal conversion into form A	some presence of polymorph A	unchanged polymorph B	unchanged polymorph B	polymorph A is obtained; also recorded: transformation happened of polymorph B into polymorph A	up to a complete conversion	complete conversion into white crystals of polymorph A	stable						
Cn1c2ccc(F)cc2c2ccncc21 [polymorph A, 6-fluoro-9-methyl-9H-β-carboline]														unstable	60	100	10-18 dBs	10-18 dBs	14.6	7.7
